Values of other authors in publication PMC5852172, “Characterization of antimicrobial and hemolytic properties of short synthetic cationic lipopeptides based on QSAR/QSTR approach” (Amino Acids, 2017).

Tests used:
[1] = system: Staphylococcus aureus (ATCC 25923); settings: minimum inhibitory concentration, CLSI procedure, S. aureus ATCC 25923; ref [1] Greber et al. 2017
From the text: Supplement 726_2017_2530_MOESM1_ESM.docx, table 1: Table 1S. Antimicrobial activity toward Gram-positive strains and toxicity toward human red blood cells. | column: Staphylococcus aureus

[2] = system: S. epidermidis (PCM 2118); settings: minimum inhibitory concentration, CLSI procedure, ref [1] Greber et al. 2017
From the text: Supplement 726_2017_2530_MOESM1_ESM.docx, table 1: Table 1S. Antimicrobial activity toward Gram-positive strains and toxicity toward human red blood cells. | column: Staphylococcus epidermidis

human red blood cells = settings: lowest concentration of lipopeptide inducing 10% hemolysis of human red blood cells; ref [1] Greber et al. 2017
From the text: Supplement 726_2017_2530_MOESM1_ESM.docx, table 1: Table 1S. Antimicrobial activity toward Gram-positive strains and toxicity toward human red blood cells. | column: Haemolysis

[3] = system: Enterococcus faecalis (ATCC 29212); settings: minimum inhibitory concentration, CLSI procedure, E. faecalis ATCC 29212; ref [1] Greber et al. 2017
From the text: Supplement 726_2017_2530_MOESM1_ESM.docx, table 1: Table 1S. Antimicrobial activity toward Gram-positive strains and toxicity toward human red blood cells. | column: Enterococcus fecalis

[4] = system: Bacillus subtilis (ATCC 6633); settings: minimum inhibitory concentration, CLSI procedure, B. subtilis ATCC 6633; ref [1] Greber et al. 2017
From the text: Supplement 726_2017_2530_MOESM1_ESM.docx, table 1: Table 1S. Antimicrobial activity toward Gram-positive strains and toxicity toward human red blood cells. | column: Bacillus subtillis

Row | Substance | Staphylococcus aureus MIC [1] | Staphylococcus epidermidis MIC [2] | Haemolysis MHC (human red blood cells) | Enterococcus fecalis MIC [3] | Bacillus subtillis MIC [4]
1 | C16-KKK-NH2 | 8 µg/mL | 4 µg/mL | 32 µg/mL | 16 µg/mL | 8 µg/mL
2 | C16-KK-NH2 | 8 µg/mL | 4 µg/mL | 256 µg/mL | 8 µg/mL | 4 µg/mL
3 | C16-KKKK-NH2 | 4 µg/mL | 4 µg/mL | 16 µg/mL | 16 µg/mL | 4 µg/mL
